Starred links: 1 amine or outer side, 2 acyl side, 3 side chain; linkers in the order of their positions; H or OH if unused. Positions of bridges follow the written chain, without caps; N, C: chain ends. Non-standard residues stand in square brackets, D forms with d. Residues, ends and D or L forms follow the SMILES beside them. *: point of attachment. hPhe(3-Cl-4-CF3) = N[C@@H](CCc1ccc(C(F)(F)F)c(Cl)c1)C(=O)O; X38 = CN([C@@H](Cc1cccc(OC(F)(F)F)c1)C(=O)[*:2])[*:1]; X23 = CN([C@@H](Cc1ccccc1OC(F)(F)F)C(=O)[*:2])[*:1]; NMePhe(3-Br) = CN[C@@H](Cc1cccc(Br)c1)C(=O)O; NMePhe(4-Me) = CN[C@@H](Cc1ccc(C)cc1)C(=O)O; NMePhe(2-Cl) = CN[C@@H](Cc1ccccc1Cl)C(=O)O; NMePhe(4-F) = CN[C@@H](Cc1ccc(F)cc1)C(=O)O; NMedβ3hAla = C[C@H](CC(=O)[*:2])N(C)[*:1]; NMehPhe = CN[C@@H](CCc1ccccc1)C(=O)O; NMeD = CN[C@@H](CC(=O)O)C(=O)O; NMeL = CN[C@@H](CC(C)C)C(=O)O; NMeV = CN[C@H](C(=O)O)C(C)C; d(β3hA) = C[C@@H](N)CC(=O)O; Piperidide = C1CCN(*)CC1; Ac5c = NC1(C(=O)O)CCCC1; Sar = CNCC(=O)O
What was measured:
[1] = test system: Human pancreatic cancer cell line AsPC-1; assay: Measurement of AsPC-1 cell growth inhibition (AsPC-1 CGI); assay type: cell-based; conditions: 96 h
How it was run: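 AsPC-1 cells in 15% FBS RPMI-1640 were exposed to test compound for 96 hours at 37° C, with CellTiter-Glo as endpoint.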

[2] = molecular target: T1, Kras and SOS1 (biotin-tagged human Kras loaded with GDP, His-tagged human SOS1) (Homo sapiens, UniProt P01116, G12D); assay: Protein-protein interaction inhibition between Kras and SOS1 (KrasGl2D-SOS PPI) using AlphaScreen; assay type: binding; conditions: AlphaScreen; biotin-tagged human Kras loaded with GDP, His-tagged human SOS1; read-out: KRAS G12D-SOS PPI IC50
T1 construct: made in house; host or cells: E. coli (stated for Kras only)
T1 sequence (P01116 1-188 isoform P01116-2 G12D): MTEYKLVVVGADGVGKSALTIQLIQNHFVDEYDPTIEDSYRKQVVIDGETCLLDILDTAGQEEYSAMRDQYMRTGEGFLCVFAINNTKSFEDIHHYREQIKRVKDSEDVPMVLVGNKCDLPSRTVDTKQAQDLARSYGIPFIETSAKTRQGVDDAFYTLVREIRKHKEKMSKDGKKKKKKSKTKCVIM
How it was run: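 Kras was produced in E. coli, purified, then loaded with GDP. It was paired via streptavidin acceptor beads with His-SOS1 held on nickel donor beads, and proximity signal at 520-620 nm was read after 680 nm illumination.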

Structure (SMILES)	IC50 [1]	IC50 [2]
CC[C@H](C)[C@@H]1NC(=O)[C@H](CC(C)C)N(C)C(=O)C[C@@H](C(=O)N2CCCCC2)N(C)C(=O)[C@H](C(C)C)N(C)C(=O)C2(CCCC2)NC(=O)[C@@H]2CCCN2C(=O)[C@H](CCc2ccc(C(F)(F)F)c(Cl)c2)NC(=O)CN(C)C(=O)[C@H](Cc2ccc(F)cc2)N(C)C(=O)CN(C)C(=O)CN(C)C1=O [Compound 1631] ([NMeL]I[Sar][Sar][NMePhe(4-F)][Sar][hPhe(3-Cl-4-CF3)]P[Ac5c][NMeV][NMeD]-Piperidide; lactam N-11)	100 to 500 nM	5 nM
CC[C@H](C)[C@@H]1NC(=O)[C@H](CC(C)C)N(C)C(=O)C[C@@H](C)NC(=O)[C@H](C(C)C)N(C)C(=O)C2(CCCC2)NC(=O)[C@@H]2CCCN2C(=O)[C@H](CCc2ccc(C(F)(F)F)c(Cl)c2)NC(=O)CN(C)C(=O)[C@H](Cc2ccc(C)cc2)N(C)C(=O)CN(C)C(=O)CN(C)C1=O [Compound 1632] (cyclo([Ac5c][NMeV][d(β3hA)][NMeL]I[Sar][Sar][NMePhe(4-Me)][Sar][hPhe(3-Cl-4-CF3)]P))	100 to 500 nM	2.9 nM
CC[C@H](C)[C@@H]1NC(=O)[C@H](CC(C)C)N(C)C(=O)C[C@@H](C)N(C)C(=O)[C@H](C(C)C)N(C)C(=O)C2(CCCC2)NC(=O)[C@@H]2CCCN2C(=O)[C@H](CCc2ccc(C(F)(F)F)c(Cl)c2)NC(=O)CN(C)C(=O)[C@H](Cc2ccccc2OC(F)(F)F)N(C)C(=O)CN(C)C(=O)CN(C)C1=O [Compound 1633] (cyclo([Ac5c][NMeV][NMedβ3hAla][NMeL]I[Sar][Sar][X23][Sar][hPhe(3-Cl-4-CF3)]P))	100 to 500 nM	50 nM
CC[C@H](C)[C@@H]1NC(=O)[C@H](CC(C)C)N(C)C(=O)C[C@@H](C)N(C)C(=O)[C@H](C(C)C)N(C)C(=O)C2(CCCC2)NC(=O)[C@@H]2CCCN2C(=O)[C@H](CCc2ccc(C(F)(F)F)c(Cl)c2)NC(=O)CN(C)C(=O)[C@H](CCc2ccccc2)N(C)C(=O)CN(C)C(=O)CN(C)C1=O [Compound 1634] (cyclo([Ac5c][NMeV][NMedβ3hAla][NMeL]I[Sar][Sar][NMehPhe][Sar][hPhe(3-Cl-4-CF3)]P))	50 to 100 nM	13 nM
CC[C@H](C)[C@@H]1NC(=O)[C@H](CC(C)C)N(C)C(=O)C[C@@H](C(=O)N2CCCCC2)N(C)C(=O)[C@H](C(C)C)N(C)C(=O)C2(CCCC2)NC(=O)[C@@H]2CCCN2C(=O)[C@H](CCc2ccc(C(F)(F)F)c(Cl)c2)NC(=O)CN(C)C(=O)[C@H](Cc2ccccc2Cl)N(C)C(=O)CN(C)C(=O)CN(C)C1=O [Compound 1636] ([NMeL]I[Sar][Sar][NMePhe(2-Cl)][Sar][hPhe(3-Cl-4-CF3)]P[Ac5c][NMeV][NMeD]-Piperidide; lactam N-11)	100 to 500 nM	11 nM
CC[C@H](C)[C@@H]1NC(=O)[C@H](CC(C)C)N(C)C(=O)C[C@@H](C)N(C)C(=O)[C@H](C(C)C)N(C)C(=O)C2(CCCC2)NC(=O)[C@@H]2CCCN2C(=O)[C@H](CCc2ccc(C(F)(F)F)c(Cl)c2)NC(=O)CN(C)C(=O)[C@H](Cc2cccc(OC(F)(F)F)c2)N(C)C(=O)CN(C)C(=O)CN(C)C1=O [Compound 1637] (cyclo([Ac5c][NMeV][NMedβ3hAla][NMeL]I[Sar][Sar][X38][Sar][hPhe(3-Cl-4-CF3)]P))	50 to 100 nM	17 nM
CC[C@H](C)[C@@H]1NC(=O)[C@H](CC(C)C)N(C)C(=O)C[C@@H](C(=O)N2CCCCC2)N(C)C(=O)[C@H](C(C)C)N(C)C(=O)C2(CCCC2)NC(=O)[C@@H]2CCCN2C(=O)[C@H](CCc2ccc(C(F)(F)F)c(Cl)c2)NC(=O)CN(C)C(=O)[C@H](Cc2cccc(OC(F)(F)F)c2)N(C)C(=O)CN(C)C(=O)CN(C)C1=O [Compound 1640] ([NMeL]I[Sar][Sar][X38][Sar][hPhe(3-Cl-4-CF3)]P[Ac5c][NMeV][NMeD]-Piperidide; lactam N-11)	100 to 500 nM	6.6 nM
CC[C@H](C)[C@@H]1NC(=O)[C@H](CC(C)C)N(C)C(=O)C[C@@H](C(=O)N2CCCCC2)N(C)C(=O)[C@H](C(C)C)N(C)C(=O)C2(CCCC2)NC(=O)[C@@H]2CCCN2C(=O)[C@H](CCc2ccc(C(F)(F)F)c(Cl)c2)NC(=O)CN(C)C(=O)[C@H](Cc2ccccc2OC(F)(F)F)N(C)C(=O)CN(C)C(=O)CN(C)C1=O [Compound 1641] ([NMeL]I[Sar][Sar][X23][Sar][hPhe(3-Cl-4-CF3)]P[Ac5c][NMeV][NMeD]-Piperidide; lactam N-11)	100 to 500 nM	8.3 nM
CC[C@H](C)[C@@H]1NC(=O)[C@H](CC(C)C)N(C)C(=O)C[C@@H](C(=O)N2CCCCC2)N(C)C(=O)[C@H](C(C)C)N(C)C(=O)C2(CCCC2)NC(=O)[C@@H]2CCCN2C(=O)[C@H](CCc2ccc(C(F)(F)F)c(Cl)c2)NC(=O)CN(C)C(=O)[C@H](Cc2cccc(Br)c2)N(C)C(=O)CN(C)C(=O)CN(C)C1=O [Compound 1643] ([NMeL]I[Sar][Sar][NMePhe(3-Br)][Sar][hPhe(3-Cl-4-CF3)]P[Ac5c][NMeV][NMeD]-Piperidide; lactam N-11)	100 to 500 nM	7.2 nM

Source: US12371454B2, “Cyclic peptide compound having Kras inhibitory action” (priority 2019, dated 2025)
